From patent US20060128738A1, “Treatment of interstitial cystitis using cannabinoid analogs” (Indevus Pharmaceuticals, Inc., priority 2004, published 2006)

Test system: cyclophosphamide-induced bladder overactivity
Assay: Subacute bladder irritation by cyclophosphamide, cystometrograms, i.v. administration
Assay type: in vivo
Details: CYP-treated rats, after administration
Procedure: Cystometrograms (CMGs) are performed under urethane anesthesia (1 g/kg s.c.) using a catheter inserted into the bladder through the bladder dome via a midline abdominal incision. Saline is infused at a rate of 0.04 ml/min to elicit repetitive bladder contractions. Effects of intravenous (i.v.) injection of cannabinoid analogs and analogs of (6aR,10aR)-Δ^8-Tetrahydrocannabinol-11-oic Acids on bladder overactivity induced by either intravesical administration of acetic acid solution or one day treatment with cyclophosphamide are investigated. […] Thus, these Compound analogs can be effective for the treatment of pain and urinary frequency symptoms in patients with painful bladder syndrome/interstitial cystitis.
One day after intraperitoneal injection of cyclophosphamide (CYP, 150 mg/kg), control CMGs are recorded for 1 to 2 hour prior to i.v. administration of Compound analog or vehicle. See, example i, above. Following administration of Compound analog, changes in cystometric parameters such as ICIs, MVP, PT and BP are recorded to evaluate the effects of Compound analog on cyclophosphamide-induced bladder overactivity.

CCCCCCC(C)(C)c1cc(O)c2c(c1)OC(C)(C)[C@@H]1CC=C(C(=O)O)C[C@@H]21 [IP-751]
No significant changes: change in baseline pressure (BP) | change in maximum voiding pressure (MVP) | change in pressure threshold (PT)
